Data reported in patent publication US10519134B2, “Pyrazole compounds and methods of making and using same” (Lundbeck La Jolla Research Center, Inc., priority 2015, dated 2019).

Assays:
FAAH = target: T1, FAAH (Mus musculus, UniProt O08914); assay: In vitro competitive activity-based protein profiling (mouse), FAAH gel band; format: biochemical; conditions: for IC50: mouse; for inhibition at 1 µM: read-out: FAAH % inh. 1 μM
T1 construct: Proteomes (mouse brain membrane fraction or cell lysates); from tissue; host or cells: mouse brain membrane fraction (or cell lysates)
T1 sequence (O08914 1-579): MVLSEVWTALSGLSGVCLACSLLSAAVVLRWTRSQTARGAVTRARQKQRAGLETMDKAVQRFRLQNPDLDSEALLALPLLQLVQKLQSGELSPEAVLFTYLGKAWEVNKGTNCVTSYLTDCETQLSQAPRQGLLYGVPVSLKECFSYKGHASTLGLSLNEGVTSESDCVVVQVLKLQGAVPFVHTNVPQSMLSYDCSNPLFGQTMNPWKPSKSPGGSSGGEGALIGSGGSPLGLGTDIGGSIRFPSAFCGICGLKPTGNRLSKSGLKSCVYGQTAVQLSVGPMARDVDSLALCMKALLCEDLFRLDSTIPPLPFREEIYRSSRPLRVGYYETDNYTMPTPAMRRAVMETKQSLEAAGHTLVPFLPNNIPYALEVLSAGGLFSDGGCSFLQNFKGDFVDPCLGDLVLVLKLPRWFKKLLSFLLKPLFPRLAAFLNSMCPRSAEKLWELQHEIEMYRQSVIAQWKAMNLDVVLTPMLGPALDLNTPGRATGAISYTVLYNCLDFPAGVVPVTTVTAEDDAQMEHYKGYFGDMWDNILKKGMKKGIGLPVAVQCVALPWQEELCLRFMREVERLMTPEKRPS
Procedure: (§1) In Vitro Competitive Activity-Based Protein Profiling (Mouse).
(§2) Proteomes (mouse brain membrane fraction or cell lysates) (50 μL, 1.0 mg/mL total protein concentration) were preincubated with varying concentrations of inhibitors at 37° C. After 30 min, FP-Rh or HT-01 (1.0 μL, 50 μM in DMSO) was added and the mixture was incubated for another 30 min at 37° C. Reactions were quenched with SDS loading buffer (15 μL—4×) and run on SDS-PAGE. Following gel imaging, serine hydrolase activity was determined by measuring fluorescent intensity of gel bands corresponding to MAGL, ABHD6, and FAAH, using ImageJ 1.43u software.

MAGL = target: T2, MAGL (Mus musculus, UniProt O35678); assay: In vitro competitive activity-based protein profiling (mouse), MAGL gel band; format: biochemical; conditions: for IC50: mouse; for inhibition at 1 µM: read-out: MAGL % inh. 1 μM
T2 construct: Proteomes (mouse brain membrane fraction or cell lysates); from tissue; host or cells: mouse brain membrane fraction (or cell lysates)
T2 sequence (O35678 1-303): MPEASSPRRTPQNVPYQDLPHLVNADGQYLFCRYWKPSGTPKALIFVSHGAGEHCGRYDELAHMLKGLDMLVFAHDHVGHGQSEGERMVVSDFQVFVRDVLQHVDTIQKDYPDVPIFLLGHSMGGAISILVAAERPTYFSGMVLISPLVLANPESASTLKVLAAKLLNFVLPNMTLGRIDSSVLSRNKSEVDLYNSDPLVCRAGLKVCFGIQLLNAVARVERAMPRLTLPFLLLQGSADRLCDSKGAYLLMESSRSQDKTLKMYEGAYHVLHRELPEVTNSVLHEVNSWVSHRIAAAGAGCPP
Procedure: as §1, §2

Row | Structure (SMILES) | IC50 (FAAH) [µM] | inhibition at 1 µM (FAAH) [%] | IC50 (MAGL) [µM] | inhibition at 1 µM (MAGL) [%]
1 | CC(=O)Nc1ccn(C(=O)N2CCN(Cc3ccc(Cl)cc3N3CCC(F)(F)CC3)CC2)n1 [Example 57, N-(1-(4-(4-chloro-2-(4,4-difluoropiperidin-1-yl)benzyl)piperazine-1-carbonyl)-1H-pyrazol-3-yl)acetamide] | 1 to 10 | 0 to 25 | ≤ 0.1 | ≥ 75
2 | CCN1CCN(c2cc(Cl)ccc2CN2CCN(C(=O)n3ccc(NC(C)=O)n3)CC2)CC1 [Example 59, N-(1-(4-(4-chloro-2-(4-ethylpiperazin-1-yl)benzyl)piperazine-1-carbonyl)-1H-pyrazol-3-yl)acetamide] | 1 to 10 | 0 to 25 | 0.1 to 1 | ≥ 75
3 | CC(=O)Nc1ccn(C(=O)N2CCC3(CCCN3Cc3cc(Cl)cc(N4C5CCC4COC5)c3)CC2)n1 [Example 64, N-(1-(1-(3-(3-oxa-8-azabicyclo[3.2.1]octan-8-yl)-5-chlorobenzyl)-1,8-diazaspiro[4.5]decane-8-carbonyl)-1H-pyrazol-3-yl)acetamide] | 1 to 10 | 0 to 25 | ≤ 0.1 | ≥ 75
4 | CC(=O)Nc1ccn(C(=O)N2CCC3(CCCN3Cc3cc(Cl)cc(N4CC5CN(C(C)=O)CC5C4)c3)CC2)n1 (centres unmarked) [Example 65, N-(1-(1-(3-(5-acetylhexahydropyrrolo[3,4-c]pyrrol-2(1H)-yl)-5-chlorobenzyl)-1,8-diazaspiro[4.5]decane-8-carbonyl)-1H-pyrazol-3-yl)acetamide] |  | 25 to 50 |  | ≥ 75
5 | CC(=O)N(C)c1ccn(C(=O)N2CCC3(CCCN3Cc3cc(N4CCCC4)cc(C(F)(F)F)c3)CC2)n1 [Example 66, N-methyl-N-(1-(1-(3-(pyrrolidin-1-yl)-5-(trifluoromethyl)benzyl)-1,8-diazaspiro[4.5]decane-8-carbonyl)-1H-pyrazol-3-yl)acetamide] |  | 0 to 25 |  | 50 to 75
6 | CC(=O)N(C)c1ccn(C(=O)N2CCC3(CCCN3Cc3cc(N4C5CCC4COC5)cc(C(F)(F)F)c3)CC2)n1 [Example 67, N-(1-(1-(3-(3-oxa-8-azabicyclo[3.2.1]octan-8-yl)-5-(trifluoromethyl)benzyl)-1,8-diazaspiro[4.5]decane-8-carbonyl)-1H-pyrazol-3-yl)-N-methylacetamide] |  | 0 to 25 |  | 0 to 25
7 | CC(=O)N(C)c1ccn(C(=O)N2CCC3(CCCN3Cc3ccc(C(F)(F)F)cc3N3CCCC3)CC2)n1 [Example 68, N-methyl-N-(1-(1-(2-(pyrrolidin-1-yl)-4-(trifluoromethyl)benzyl)-1,8-diazaspiro[4.5]decane-8-carbonyl)-1H-pyrazol-3-yl)acetamide] |  | 0 to 25 |  | 50 to 75
8 | CC(=O)N(C)c1ccn(C(=O)N2CCN(Cc3cc(N4CCCC4)cc(C(F)(F)F)c3)CC2)n1 [Example 70, N-methyl-N-(1-(4-(3-(pyrrolidin-1-yl)-5-(trifluoromethyl)benzyl)piperazine-1-carbonyl)-1H-pyrazol-3-yl)acetamide] | 1 to 10 | 0 to 25 | 0.1 to 1 | ≥ 75
9 | CC(=O)Nc1ccn(C(=O)N2CCN(Cc3ccc(C(F)(F)F)cc3Oc3nc4ccccc4s3)CC2)n1 [Example 75, N-(1-(4-(2-(benzo[d]thiazol-2-yloxy)-4-(trifluoromethyl)benzyl)piperazine-1-carbonyl)-1H-pyrazol-3-yl)acetamide] | 1 to 10 | 0 to 25 | ≤ 0.1 | ≥ 75
10 | CC(=O)Nc1ccn(C(=O)N2CCN(Cc3cc(Oc4nc5ccccc5s4)cc(C(F)(F)F)c3)CC2)n1 [Example 76, N-(1-(4-(3-(benzo[d]thiazol-2-yloxy)-5-(trifluoromethyl)benzyl)piperazine-1-carbonyl)-1H-pyrazol-3-yl)acetamide] | 0.1 to 1 | ≥ 75 | ≤ 0.1 | ≥ 75
